Source: patent publication US20090176807A1, “GLUCOCORTICOID MIMETICS, METHODS OF MAKING THEM, PHARMACEUTICAL COMPOSITIONS, AND USES THEREOF” (priority 2005, published 2009)

Target: T1, human glucocorticoid receptor (GR) complex (Homo sapiens, UniProt P04150)
T1 construct: made in house; host or cells: insect expression system (baculovirus lysate)
T1 sequence (P04150 1-777): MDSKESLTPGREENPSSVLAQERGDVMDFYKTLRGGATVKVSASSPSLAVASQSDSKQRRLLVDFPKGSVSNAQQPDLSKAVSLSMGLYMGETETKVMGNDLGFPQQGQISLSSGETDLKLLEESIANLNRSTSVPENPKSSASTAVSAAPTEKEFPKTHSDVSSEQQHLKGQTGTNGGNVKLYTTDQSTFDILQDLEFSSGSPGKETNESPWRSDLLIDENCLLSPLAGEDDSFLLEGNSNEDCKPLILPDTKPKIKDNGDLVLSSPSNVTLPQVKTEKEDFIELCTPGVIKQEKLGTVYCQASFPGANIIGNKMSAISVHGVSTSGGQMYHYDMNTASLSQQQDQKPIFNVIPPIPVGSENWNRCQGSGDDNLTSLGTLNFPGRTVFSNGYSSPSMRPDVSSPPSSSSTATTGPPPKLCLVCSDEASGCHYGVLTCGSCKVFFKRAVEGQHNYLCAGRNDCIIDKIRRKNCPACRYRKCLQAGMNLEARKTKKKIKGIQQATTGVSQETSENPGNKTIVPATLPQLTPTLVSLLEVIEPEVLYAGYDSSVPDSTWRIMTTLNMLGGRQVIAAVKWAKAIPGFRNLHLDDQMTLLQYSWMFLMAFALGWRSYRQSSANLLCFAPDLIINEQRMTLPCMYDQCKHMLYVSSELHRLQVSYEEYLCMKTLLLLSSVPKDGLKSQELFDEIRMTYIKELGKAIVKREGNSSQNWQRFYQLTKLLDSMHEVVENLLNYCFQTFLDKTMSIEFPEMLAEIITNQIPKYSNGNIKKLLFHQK
Test: Glucocorticoid receptor competitive binding assay (fluorescence polarization)
Details: competition with TAMRA-labeled dexamethasone, result in words only
Method: Compounds of the invention were evaluated for binding to the steroid receptor by a fluorescence polarization competitive binding assay.
The wavelengths for maximum excitation and emission of the fluorescent probe should first be measured. An example of such a probe is rhodamine (TAMRA)-labeled dexamethasone.
The affinity of the probe for the steroid receptor was then determined in a titration experiment. The fluorescence polarization value of the probe in assay buffer was measured on an SLM-8100 fluorometer using the excitation and emission maximum values described above. Aliquots of expression vector lysate were added and fluorescence polarization was measured after each addition until no further change in polarization value was observed. Non-linear least squares regression analysis was used to calculate the dissociation constant of the probe from the polarization values obtained for lysate binding to the probe.
This assay uses fluorescence polarization (FP) to quantitate the ability of test compounds to compete with tetramethyl rhodamine (TAMRA)-labeled dexamethasone for binding to a human glucocorticoid receptor (GR) complex prepared from an insect expression system. The assay buffer was: 10 mM TES, 50 mM KCl, 20 mM Na2MoO4.2H2O, 1.5 mM EDTA, 0.04% w/v CHAPS, 10% v/v glycerol, 1 mM dithiothreitol, pH 7.4. Test compounds were dissolved to 1 mM in neat DMSO and then further diluted to 10× assay concentration in assay buffer supplemented with 10% v/v DMSO. Test compounds were serially diluted at 10× assay concentrations in 10% DMSO-containing buffer in 96-well polypropylene plates. Binding reaction mixtures were prepared in 96-well black Dynex microtiter plates by sequential addition of the following assay components to each well: 15 μL of 10× test compound solution, 85 μL of GR-containing baculovirus lysate diluted 1:170 in assay buffer, and 50 μL of 15 nM TAMRA-labeled dexamethasone. Positive controls were reaction mixtures containing no test compound; negative controls (blanks) were reaction mixtures containing 0.7 μM to 2 μM dexamethasone. […] IC50 values were determined by iterative non-linear curve fitting of the FP signal data to a 4-parameter logistic equation.

Compound	activity in the GR binding assay
CC(C)(CC(O)(Cn1cc(Cl)c(=O)c2sccc21)C(F)(F)F)c1cc(-c2cncnc2)cc2c1OCC2 (stereo not shown) [6-Chloro-4-[2-hydroxy-4-methyl-4-(5-pyrimidin-5-yl-2,3-dihydrobenzofuran-7-yl)-2-trifluoromethylpentyl]-4H-thieno[3,2-b]pyridin-7-one]	potent activity
CC(C)(CC(O)(Cn1ccc(=O)c2sccc21)C(F)(F)F)c1cccc2c1OCC2 (stereo not shown) [4-[4-(2,3-Dihydrobenzofuran-7-yl)-2-hydroxy-4-methyl-2-trifluoromethylpentyl]-4H-thieno[3,2-b]pyridin-7-one]	potent activity
COc1ccc(-c2cccnc2)cc1C(C)(C)CC(O)(Cn1ccc(=O)c2sccc21)C(F)(F)F (stereo not shown) [4-[2-Hydroxy-4-(2-methoxy-5-pyridin-3-ylphenyl)-4-methyl-2-trifluoromethylpentyl]-4H-thieno[3,2-b]pyridin-7-one]	potent activity
CC(C)(CC(O)(Cn1cc(Br)c(=O)c2sccc21)C(F)(F)F)c1cccc2c1OCC2 (stereo not shown) [6-Bromo-4-[4-(2,3-dihydrobenzofuran-7-yl)-2-hydroxy-4-methyl-2-trifluoromethylpentyl]-4H-thieno[3,2-b]pyridin-7-one]	potent activity
COc1ccc(-c2cccnc2)cc1C(C)(C)CC(O)(Cn1cc(Cl)c(=O)c2sccc21)C(F)(F)F (stereo not shown) [6-Chloro-4-[2-hydroxy-4-(2-methoxy-5-pyridin-3-ylphenyl)-4-methyl-2-trifluoromethylpentyl]-4H-thieno[3,2-b]pyridin-7-one]	potent activity
Cc1cccc(C(C)(C)CC(O)(Cn2ccc(=O)c3sccc32)C(F)(F)F)c1O (stereo not shown) [4-[2-Hydroxy-4-(2-hydroxy-3-methylphenyl)-4-methyl-2-trifluoromethylpentyl]-4H-thieno[3,2-b]pyridin-7-one]	potent activity
CC(C)(CC(O)(Cn1cc(Cl)c(=O)c2sccc21)C(F)(F)F)c1cc(-c2cccnc2)cc2c1OCC2 (stereo not shown) [6-Chloro-4-[2-hydroxy-4-methyl-4-(5-pyridin-3-yl-2,3-dihydrobenzofuran-7-yl)-2-trifluoromethylpentyl]-4H-thieno[3,2-b]pyridin-7-one]	potent activity
Cc1cccc(C(C)(C)CC(O)(Cn2ccc(=O)c3sccc32)C(F)(F)F)c1OC(F)F (stereo not shown) [4-[4-(2-Difluoromethoxy-3-methylphenyl)-2-hydroxy-4-methyl-2-trifluoromethylpentyl]-4H-thieno[3,2-b]pyridin-7-one]	potent activity
CC(C)(CC(O)(Cn1cc(Cl)c(=O)c2sccc21)C(F)(F)F)c1cccc2c1OCC2 (stereo not shown) [6-Chloro-4-[4-(2,3-dihydrobenzofuran-7-yl)-2-hydroxy-4-methyl-2-trifluoromethylpentyl]-4H-thieno[3,2-b]pyridin-7-one]	potent activity
CC(C)(CC(O)(Cn1ccc(=O)c2cnccc21)C(F)(F)F)c1cc(F)ccc1O (stereo not shown) [1-[4-(5-Fluoro-2-hydroxyphenyl)-2-hydroxy-4-methyl-2-trifluoromethylpentyl]-1H-[1,6]naphthyridin-4-one]	potent activity
CC(C)(CC(O)(Cn1cc(Cl)c(=O)c2cnccc21)C(F)(F)F)c1cc(-c2cncnc2)cc2c1OCC2 (stereo not shown) [3-Chloro-1-[2-hydroxy-4-methyl-4-(5-pyrimidin-5-yl-2,3-dihydrobenzofuran-7-yl)-2-trifluoromethylpentyl]-1H-[1,6]naphthyridin-4-one]	potent activity
COc1c(C)cccc1C(C)(C)CC(O)(Cn1ccc(=O)c2sccc21)C(F)(F)F (stereo not shown) [4-[2-Hydroxy-4-(2-methoxy-3-methylphenyl)-4-methyl-2-trifluoromethylpentyl]-4H-thieno[3,2-b]pyridin-7-one]	potent activity
CC(C)(CC(O)(Cn1cc(Cl)c(=O)c2sccc21)C(F)(F)F)c1cccc(-c2ccccc2)c1 (stereo not shown) [4-(4-Biphenyl-3-yl-2-hydroxy-4-methyl-2-trifluoromethylpentyl)-6-chloro-4H-thieno[3,2-b]pyridin-7-one]	potent activity
Cc1ccc(F)cc1C(C)(C)CC(O)(Cn1ccc(=O)c2sccc21)C(F)(F)F (stereo not shown) [4-[4-(5-Fluoro-2-methylphenyl)-2-hydroxy-4-methyl-2-trifluoromethylpentyl]-4H-thieno[3,2-b]pyridin-7-one]	potent activity
CC(C)(CC(O)(Cn1ccc(=O)c2sccc21)C(F)(F)F)c1cccc(-c2ccccc2)c1 (stereo not shown) [4-(4-Biphenyl-3-yl-2-hydroxy-4-methyl-2-trifluoromethylpentyl)-4H-thieno[3,2-b]pyridin-7-one]	potent activity
CC(C)(CC(O)(Cn1ccc(=O)c2sccc21)C(F)(F)F)c1cc(-c2cncnc2)cc2c1OCC2 (stereo not shown) [4-[2-Hydroxy-4-methyl-4-(5-pyrimidin-5-yl-2,3-dihydrobenzofuran-7-yl)-2-trifluoromethylpentyl]-4H-thieno[3,2-b]pyridin-7-one]	potent activity
CC(C)(CC(O)(Cn1ccc(=O)c2cnccc21)C(F)(F)F)c1cc(-c2cncnc2)cc2c1OCC2 (stereo not shown) [1-[2-Hydroxy-4-methyl-4-(5-pyrimidin-5-yl-2,3-dihydrobenzofuran-7-yl)-2-trifluoromethylpentyl]-1H-[1,6]naphthyridin-4-one]	potent activity
COc1ccccc1C(C)(C)CC(O)(Cn1ccc(=O)c2sccc21)C(F)(F)F (stereo not shown) [4-[2-Hydroxy-4-(2-methoxyphenyl)-4-methyl-2-trifluoromethylpentyl]-4H-thieno[3,2-b]pyridin-7-one]	potent activity
COc1ccc(F)cc1C(C)(C)CC(O)(Cn1ccc(=O)c2cnccc21)C(F)(F)F (stereo not shown) [1-[4-(5-Fluoro-2-methoxyphenyl)-2-hydroxy-4-methyl-2-trifluoromethylpentyl]-1H-[1,6]naphthyridin-4-one]	potent activity
Cc1ccc(F)cc1C(C)(C)CC(O)(Cn1ccc(=O)c2cnccc21)C(F)(F)F (stereo not shown) [1-[4-(5-Fluoro-2-methylphenyl)-2-hydroxy-4-methyl-2-trifluoromethylpentyl]-1H-[1,6]naphthyridin-4-one]	potent activity
COc1c(Br)cccc1C(C)(C)CC(O)(Cn1ccc(=O)c2sccc21)C(F)(F)F (stereo not shown) [4-[4-(3-Bromo-2-methoxyphenyl)-2-hydroxy-4-methyl-2-trifluoromethylpentyl]-4H-thieno[3,2-b]pyridin-7-one]	potent activity
CC(C)(CC(O)(Cn1cc(Cl)c(=O)c2cnccc21)C(F)(F)F)c1cccc2c1OCO2 (stereo not shown) [1-(4-Benzo[1,3]dioxol-4-yl-2-hydroxy-4-methyl-2-trifluoromethylpentyl)-3-chloro-1H-[1,6]naphthyridin-4-one]	potent activity
COc1ccc(-c2cncnc2)cc1C(C)(C)CC(O)(Cn1cc(Cl)c(=O)c2sccc21)C(F)(F)F (stereo not shown) [6-Chloro-4-[2-hydroxy-4-(2-methoxy-5-pyrimidin-5-ylphenyl)-4-methyl-2-trifluoromethylpentyl]-4H-thieno[3,2-b]pyridin-7-one]	potent activity
CC(C)(CC(O)(Cn1cc(Cl)c(=O)c2cnccc21)C(F)(F)F)c1cc(-c2cccnc2)cc2c1OCC2 (stereo not shown) [3-Chloro-1-[2-hydroxy-4-methyl-4-(5-pyridin-3-yl-2,3-dihydrobenzofuran-7-yl)-2-trifluoromethylpentyl]-1H-[1,6]naphthyridin-4-one]	potent activity
CC(C)(CC(O)(Cn1cc(Cl)c(=O)c2sccc21)C(F)(F)F)c1cccc2c1OCO2 (stereo not shown) [4-(4-Benzo[1,3]dioxol-4-yl-2-hydroxy-4-methyl-2-trifluoromethylpentyl)-6-chloro-4H-thieno[3,2-b]pyridin-7-one]	potent activity
